This is an account of results in patent publication US20080226718A1, “Indole and Azaindole Derivatives For the Treatment of Inflammatory and Autoimmune Diseases” (Brane Discovery S.r.l, priority 2005, published 2008).

Assay [1] relates to lymphocytes. Nature of the assay: Chemotaxis assay, lymphocytes (MIP-3β). Particulars: Homo sapiens, Lymphocyte, MIP-3β 100 nM, 4 h; for inhibition at 10 µM: [cpd] 10 μM, read-out: Inhibition of Chemotaxis (%) Lymphocytes (MIP3-β); for inhibition at 25 µM: [cpd] 25 μM; for inhibition at 25 µM / inhibition at 50 µM: read-out: Inhibition of Chemotaxis (%) Lymphocytes (MIP3-β) (converted); for inhibition at 50 µM: [cpd] 50 μM. Format: cell-based. On the procedure:
(§1) PMNs and monocytes migration was assessed using 1 or 3-μm pore size transwells (Bio-Coat Becton-Dickinson), while lymphocytes by using 5-elm pore size transwells.
(§2) Cells were in RPMI1640, containing 10% heat-inactivated Fetal Calf Serum (FCS) and 20 mM HEPES, pH 7.3, at 2×10^6/ml. 100 μl of cell suspension were added to the top well, and 600 μl of medium, containing chemoattractants and test compound, were added to the bottom well. Migration was evaluated after 2 h for PMNs and monocytes and after 4 h for lymphocytes. fMLP 10 nM (PMNs and monocytes) and MIP-3β 100 nM (lymphocytes) were utilized as chemoattractants. After fixation with 1.5% glutaraldehyde, migrated cells were counted by fluorescence-activated celli sorting using polystyrene beads (Polyscience) as an internal standard (Campbell J. J. et al. J. Cell. Biol. 134, 255-266, 1996; Laudanna C. et al. J. Biol. Chem. 273,46, 30306-30315, 1998).
(§3) Results are expressed as percentage of inhibition over control (=100%), and are the mean of three experiments.

Assay [2] relates to monocytes. Description: Chemotaxis assay, monocytes (fMLP). In kind it is cell-based. The conditions noted are these: Homo sapiens, Monocyte, fMLP 10 nM, 2 h; for inhibition at 10 µM: [cpd] 10 μM; for inhibition at 25 µM: [cpd] 25 μM; for inhibition at 50 µM: [cpd] 50 μM. The method, then: as §1, §2, §3
Assay [3] relates to monocytes. Description: Chemokine-induced rapid adhesion of monocytes to fibrinogen (fMLP). The conditions noted are these: Homo sapiens, Monocyte, fMLP 100 nM; for inhibition at 10 µM: [cpd] 10 μM; for inhibition at 25 µM: [cpd] 25 μM; for inhibition at 50 µM: [cpd] 50 μM. Format: cell-based. The method, then:
(§4) Adhesion was performed on purified integrin ligands and was evaluated as reported in Constantin G. et al., Immunity, 16, 759-769, 2000. Briefly, primary naïve lymphocytes, polymorphonuclear neutrophils (PMNs) or monocytes were isolated form healthy donors. In other experiments, murine autoreactive T cells were obtained from SJL mice immunized with PLP139-151 as described (Piccio L. et al., J. Immunol, 168, 1940-1949, 2002). Cells were resuspended at 4×10^6/ml in PBS, CaCl2, MgCl2 1 mM, 10% FCS, pH 7.2. Adhesion assays were performed on eighteen well glass slides coated overnight at 4° C. with ligands for CR3 (fibrinogen) or LFA-1 (ICAM-1). 20 μl of cell suspension were added to the wells and stimulated at 37° C. with 5 μl of agonists prior to washing, fixation and computer-assisted enumeration of bound cells.
(§5) Integrin activation was measured as induction of rapid adhesion triggered by the classical chemoattractant N-formyl-L-methionyl-L-leucyl-phenylalanine (fMLP) (100 nM) or by the CC chemokine MIP3β (CCL19, 1 μM). PMNs and monocytes were triggered to adhere to fibrinogen (CR3 ligand); naive human lymphocytes or murine encephalitogenic T cells were triggered to adhere to ICAM-1 (LFA-1 ligand). Triggered adhesion was evaluated after 2 min of stimulation under static conditions. The cells were pretreated at 37° C. for 30-60 min with the indicated concentrations of the test compound. Results are expressed as percentage of inhibition over control (=100%) and are the mean of three experiments in the case of human leukocytes. Results are expressed as mean counts and are the mean counts ±S.D of three experiments and are the mean of three experiments in the case of murine encephalitogenic lymphocytes.

Assay [4] deals with encephalitogenic lymphocytes. Description: Spontaneous adhesion of encephalitogenic T cells on purified ICAM-1. Particulars: Mus musculus, Lymphocyte, 1 h; for inhibition at 5 µM: [cpd] 5 μM, read-out: Inhibition of Spontaneous Adhesion in encephalitogenic lymphocytes (% of control/non-treated cells) ICAM-1; for inhibition at 10 µM: [cpd] 10 μM; for inhibition at 10 µM / inhibition at 50 µM: read-out: Inhibition of Spontaneous Adhesion in encephalitogenic lymphocytes (% of control/non-treated cells) ICAM-1 (converted); for inhibition at 50 µM: [cpd] 50 μM. Format: cell-based, SJL mice. On the procedure:
Spontaneous adhesion of encephalitogenic lymphocytes was measured in adhesion assays on purified ICAM-1 and VCAM-1 as previously described (Constantin G. et al., J. Immunol. 162, 1144-1149, 1999). Autoreactive T cells were obtained from SJL mice immunized with PLP139-151 as described (Piccio L. et al., J. Immunol. 168, 1940-1949, 2002). Lymphocytes were treated with test compound at concentrations between 5-100 μM for 1 h, while control/untreated cells were treated with vehicle (DMSO). Results are expressed as percentage of inhibition over control (=100%) ±S.D and are the mean of three-four experiments.
ICAM-1 and VCAM-1 are adhesion molecules from the family of immunoglobulins and control the migration of lymphocytes through the endothelium during inflammatory responses. Encephalitogenic T cells are activated lymphocytes displaying spontaneous adhesion on ICAM-1 and VCAM-1 and have increased migration capacities in inflammation sites. Spontaneous adhesion of encephalitogenic lymphocytes was measured in adhesion assays on purified ICAM-1 and VCAM-1 as described in the method.

Assay [5] concerns PMNs. Description: Chemokine-induced rapid adhesion of PMNs to fibrinogen (fMLP). Format: cell-based. The conditions noted are these: Homo sapiens, 2 min, fMLP 100 nM; for inhibition at 10 µM: [cpd] 10 μM; for inhibition at 25 µM: [cpd] 25 μM; for inhibition at 50 µM: [cpd] 50 μM. The method, then:
as §4, §5
(§6) Integrin activation was measured as induction of rapid adhesion triggered by the “classical” chemoattractant fMLP (100 nM) or by the CC chemokine MIP3β (CCL19, 1 μM). PMNs were triggered to adhere to fibrinogen (CR3 ligand); lymphocytes were triggered to adhere to ICAM-1 (LFA-1 ligand).

Assay [6] concerns PMNs. Nature of the assay: Chemotaxis assay, PMNs (fMLP). Format: cell-based. Particulars: Homo sapiens, fMLP 10 nM, 2 h; for inhibition at 10 µM: [cpd] 10 μM; for inhibition at 25 µM: [cpd] 25 μM; for inhibition at 50 µM: [cpd] 50 μM. On the procedure: as §1, §2, §3
The subject of assay [7] is lymphocytes. Nature of the assay: Chemokine-induced rapid adhesion of lymphocytes to ICAM-1 (MIP3β). Format: cell-based. The conditions noted are these: Homo sapiens, Lymphocyte, MIP3β 1 μM; for inhibition at 10 µM: [cpd] 10 μM, read-out: Inhibition of Adhesion (%) Lymphocytes (MIP3-β); for inhibition at 25 µM: [cpd] 25 μM; for inhibition at 25 µM / inhibition at 50 µM: read-out: Inhibition of Adhesion (%) Lymphocytes (MIP3-β) (converted); for inhibition at 50 µM: [cpd] 50 μM. The method, then: as §4, §5, §6

Assay [8] relates to encephalitogenic lymphocytes. Nature of the assay: Chemokine-induced adhesion of murine encephalitogenic T cells to ICAM-1. Format: cell-based, SJL mice. The conditions noted are these: ICAM-1; for Chemokine-induced Adhesion in encephalitogenic lymphocytes, Mean counts ± S.D., in presence of MIP3-β stimulation: 1 μM CCL19 (MIP-3beta). The method, then: as §4, §5
Chemokines trigger rapid arrest of lymphocytes in blood vessels through pertussis toxin-sensitive G protein coupled receptors. Rapid adhesion to purified ICAM-1 was measured in in vitro adhesion assays using control/untreated cells and lymphocytes treated with concentration between 5-50 μM for 1 h. Autoreactive lymphocytes were then stimulated with 1 μM CCL19 (MIP-3beta) for 3 min. […] These compounds were already efficient in blocking adhesion using a concentration of 5 μM for the cell treatment.

Consider `COc1ccc(-c2c(-c3nnc(C)o3)[nH]c3cc(OC)c(OC)cc23)cc1` [Example 77], for which the inhibition at 10 µM with lymphocytes [1] is 13.6%; in the assay with monocytes [2], 40.6%; in the assay on monocytes [3], 3.5%; in assay [4] it was 34.8%; with PMNs [5], 17.4%; with PMNs [6], 51.3%. In addition, the inhibition at 10 µM in the assay on lymphocytes [7] amounted to 15.9%. The inhibition at 25 µM was 25.4% in the assay with lymphocytes [1]; 48.9% with monocytes [2]; 33.4% in the assay with monocytes [3]; 24.7% in the assay with PMNs [5]; 49.4% in the assay with PMNs [6]; 20.7% in the assay on lymphocytes [7]. Also, the inhibition at 50 µM with lymphocytes [1] is 33.8%; in the assay on monocytes [2], 59%; in the assay on monocytes [3], 50.8%; in assay [4], 95.9%; in the assay on PMNs [5], 30.5%; with PMNs [6], 59.5%. For the same molecule, the inhibition at 50 µM in the assay with lymphocytes [7] was 30.5%. Further, the inhibition at 5 µM in assay [4] worked out at 25.9%.
Turning to `CCOC(=O)CCc1[nH]c2cc(OC)c(OC)cc2c1-c1ccc(OC)cc1` [Example 22], the inhibition at 10 µM in the assay on lymphocytes [1] is 47.9%; with monocytes [2], 23.7%; with monocytes [3], 9.5%; in assay [4], 61.3%; in the assay with PMNs [5], 2.6%; with PMNs [6], 56.9%. In addition, the inhibition at 10 µM with lymphocytes [7] came to 65%. Also, the inhibition at 25 µM was 84.6% with lymphocytes [1]; 80.1% with monocytes [2]; 29.6% with monocytes [3]; 13.8% in the assay on PMNs [5]; 88.7% with PMNs [6]; 95.6% with lymphocytes [7]. Moreover, the inhibition at 50 µM in the assay with lymphocytes [1] was 94.7%; in the assay with monocytes [2] it was 96.4%; with monocytes [3], 42.6%; in assay [4], 94.7%; with PMNs [5], 32.6%; in the assay with PMNs [6] it was 97.8%. Further, the inhibition at 50 µM in the assay with lymphocytes [7] is 97.1%. Further, the inhibition at 5 µM in assay [4] stood at 39.9%. Moreover, the “Chemokine-induced Adhesion in encephalitogenic lymphocytes, Mean counts ± S.D., in presence of MIP3-β stimulation” value in assay [8] ([cpd] 10 μM) is given as 74.1 ± 6.4; in assay [8] ([cpd] 50 μM), 48.0 ± 6.4. Also, the “Adhesion in encephalitogenic lymphocytes, Mean counts ± S.D., in absence of MIP3-β stimulation” value in assay [8] ([cpd] 10 μM) was 44.2 ± 5.7.
Regarding `COc1ccc(-c2c(C#N)n(CCN(C)C)c3cc(OC)c(OC)cc23)cc1` [Example 18], the inhibition at 10 µM in the assay with lymphocytes [1] is 51%; in the assay with monocytes [2], 17.3%; in the assay on monocytes [3], 7.8%; in assay [4], 36.8%; in the assay with PMNs [5], 2.2%; in the assay on PMNs [6], 52.3%. Also, the inhibition at 10 µM with lymphocytes [7] was determined as 66.3%. Also, the inhibition at 25 µM in the assay on lymphocytes [1] was 86.7%; in the assay on monocytes [2], 62.1%; with monocytes [3], 14.7%; with PMNs [5], 10.4%; in the assay with PMNs [6], 77.6%; in the assay with lymphocytes [7], 91.4%. Moreover, the inhibition at 50 µM is 92.3% in the assay on lymphocytes [1]; 84.5% with monocytes [2]; 31.2% with monocytes [3]; 96.9% in assay [4]; 26.7% with PMNs [5]; 91.2% in the assay on PMNs [6]. For the same molecule, the inhibition at 50 µM in the assay on lymphocytes [7] is 95.1%. Also, the inhibition at 5 µM in assay [4] came to 28.7%.
With `COc1cc2[nH]c(C(=O)N(C)C)c(-c3ccccc3)c2cc1OC` [Example 46], the inhibition at 10 µM with lymphocytes [1] is 19.9%; with monocytes [2], 48.2%; with monocytes [3], 12.6%; in assay [4], 25.9%; with PMNs [5] it was 16.7%; with PMNs [6], 65.3%. Moreover, the inhibition at 10 µM with lymphocytes [7] turned out to be 34.1%. Moreover, the inhibition at 25 µM was 45% with lymphocytes [1]; 63.8% with monocytes [2]; 32.2% in the assay on monocytes [3]; 28.7% in the assay with PMNs [5]; 74.5% with PMNs [6]; 58.8% in the assay on lymphocytes [7]. The inhibition at 50 µM in the assay on lymphocytes [1] was 85%; in the assay on monocytes [2], 89.9%; in the assay with monocytes [3] it was 37.6%; in assay [4] it was 96.3%; in the assay with PMNs [5], 38.4%; in the assay with PMNs [6], 93.1%. For the same molecule, the inhibition at 50 µM in the assay with lymphocytes [7] is 67.1%. Further, in assay [4], the inhibition at 5 µM turned out to be 15.8%.
